# In ChEMBL document CHEMBL5729371, “Compound functioning as bromodomain protein inhibitor, and composition” (2022):
# Target: T1, Bromodomain-containing protein 4 (Homo sapiens, UniProt O60885)
# Test: (§1) Inhibitory Activity Assay: The assays of BRD4 (D1) and BRD4 (D2) were conducted in a 384-well polystyrene plate. The test compounds were first serially diluted in DMSO and the test compound/DMSO were transferred to 384-well plates. The final concentration of DMSO in the assay was 0.1%. 2 volumes of protein/peptide mixture were added into 384-well plates, then 2 volumes of assay mixture were added, and shake for 30 s. The plate was incubated at room temperature for 2 h. Then the HTRF signal on EnVision was readed.
row,IC50,SMILES
1,6.9 nM,Cc1nc2ncc(-c3cn(C)c(=O)c4[nH]ccc34)nc2n1Cc1ccc(Cl)cc1
2,4.2 nM,Cc1nc2ncc(-c3cn(C)c(=O)c4[nH]ccc34)cc2n1Cc1cccc(Cl)c1
3,1 nM,CCS(=O)(=O)Nc1cc(-c2cn(C)c(=O)c3[nH]ccc23)cc2c1nc(C)n2Cc1ccc(Cl)cc1

# Target: T1, Bromodomain-containing protein 4
# Test: as §1
row,IC50,SMILES
1,1.7 nM,Cc1nc2ncc(-c3cn(C)c(=O)c4[nH]ccc34)nc2n1Cc1ccc(Cl)cc1
2,1.4 nM,Cc1nc2ncc(-c3cn(C)c(=O)c4[nH]ccc34)cc2n1Cc1cccc(Cl)c1
3,0.4 nM,CCS(=O)(=O)Nc1cc(-c2cn(C)c(=O)c3[nH]ccc23)cc2c1nc(C)n2Cc1ccc(Cl)cc1
